Like-named read-outs stand apart in the source and are kept apart here.
Legend:
Type in all cases: physicochemical
[1] = Dynamic vapour sorption (sorption isotherms, water uptake); conditions: for hygroscopic behavior: uptake of water: 25° C.
Text: Sorption isotherms were generated using an IGAsorp water sorption monitor from Hiden Isochema. […] For BR salt form only: Sorption isotherms were registered on a DVS-1 water sorption monitor from Surface Measurement Systems.

[2] = X-ray powder diffraction: crystallinity and polymorphism; conditions: for indications for polymorphism: several crystallization experiments
Text: X-ray powder diagrams were generated using a STOE-STADI P-diffractometer in transmission mode fitted with a MYTHEN-detector and a Cu-anode as X-ray source with monochromatic CuKα1 radiation (λ=1.54056 Å, 40 kV, 40 mA).

[3] = ThermoGravimetry (loss on drying); conditions: TG
Text: Thermal gravimetry data were collected with a TG instrument from the Q-series of TA Instruments. This method measures weight changes in a material as a function of temperature under a controlled atmosphere.

CCS(=O)(=O)O.CO[C@H]1COCC[C@H]1NC1CCN(C(=O)c2ncnc(NC[C@H]3CCC[C@@H](c4ccc(C)cc4)O3)c2C)CC1 [esilate salt of compound I, (4-((3R,4R)-3-methoxytetrahydro-pyran-4-ylamino)piperidin-1-yl)(5-methyl-6-(((2R,6S)-6-(p-tolyl)tetrahydro-2H-pyran-2-yl)methylamino)pyrimidin-4-yl)methanone esilate]
hygroscopic behavior: uptake of water ([1]; up to 80% r.h. (humidity range 10-80%)): 20%
hygroscopic behavior: uptake of water ([1]; up to 80% r.h. (humidity range 10-80%), listed as Esilate Salt): 20% uptake
hygroscopic behavior: deliquescence ([1]; up to 80% r.h., listed as Esilate Salt): deliquescent
hygroscopic behavior: deliquescence ([1]; up to 80% r.h., listed as esilate): irreversibly deliquescent
hygroscopic behavior: deliquescence ([1]; up to 90% r.h.): deliquescent
hygroscopic behavior: uptake of water ([1]; up to 90% r.h.): 45% uptake
crystallinity [2]: high
crystallinity ([2]; listed as esilate salt of compound of formula (I)): high crystallinity
indications for polymorphism ([2]; listed as Esilate Salt): no
indications for polymorphism ([2]; listed as esilate): only one polymorphic form
loss on drying [3]: 2.4%

Br.CO[C@H]1COCC[C@H]1NC1CCN(C(=O)c2ncnc(NC[C@H]3CCC[C@@H](c4ccc(C)cc4)O3)c2C)CC1 [hydrobromide salt of compound I, (4-((3R,4R)-3-methoxytetrahydro-pyran-4-ylamino)piperidin-1-yl)(5-methyl-6-(((2R,6S)-6-(p-tolyl)tetrahydro-2H-pyran-2-yl)methylamino)pyrimidin-4-yl)methanone hydrobromide]
hygroscopic behavior: uptake of water ([1]; up to 80% r.h. (humidity range 10-80%), hydrobromide): 4.5%
hygroscopic behavior: uptake of water ([1]; up to 80% r.h. (humidity range 10-80%), listed as Hydrobromide Salt, hydrobromide): 4.5%
hygroscopic behavior: deliquescence ([1]; up to 80% r.h., listed as Hydrobromide Salt, hydrobromide): deli-
hygroscopic behavior: deliquescence ([1]; up to 80% r.h., listed as hydrobromide, hydrobromide): irreversibly deliquescent
hygroscopic behavior: deliquescence ([1]; up to 90% r.h.): deli-
hygroscopic behavior: uptake of water ([1]; up to 90% r.h.): 20%
crystallinity ([2]; hydrobromide): medium
crystallinity ([2]; listed as hydrobromide salt of compound of formula (I), hydrobromide): medium crystallinity
indications for polymorphism ([2]; listed as Hydrobromide Salt, hydrobromide): Yes
indications for polymorphism ([2]; listed as hydrobromide, hydrobromide): Different polymorphic modifications
loss on drying [3]: 2.9%

CO[C@H]1COCC[C@H]1NC1CCN(C(=O)c2ncnc(NC[C@H]3CCC[C@@H](c4ccc(C)cc4)O3)c2C)CC1.Cl [hydrochloride salt of compound I, (4-((3R,4R)-3-methoxytetrahydro-pyran-4-ylamino)piperidin-1-yl)(5-methyl-6-(((2R,6S)-6-(p-tolyl)tetrahydro-2H-pyran-2-yl)methylamino)pyrimidin-4-yl)methanone hydrochloride]
hygroscopic behavior: uptake of water ([1]; up to 80% r.h. (humidity range 10-80%), hydrochloride): 15%
hygroscopic behavior: uptake of water ([1]; up to 80% r.h. (humidity range 10-80%), listed as Hydrochloride Salt, hydrochloride): 15% uptake
hygroscopic behavior: deliquescence ([1]; up to 80% r.h., listed as Hydrochloride Salt, hydrochloride): deliquescent
hygroscopic behavior: deliquescence ([1]; up to 80% r.h., listed as hydrochloride, hydrochloride): irreversibly deliquescent
hygroscopic behavior: deliquescence ([1]; up to 90% r.h.): deliquescent
hygroscopic behavior: uptake of water ([1]; up to 90% r.h.): 40% uptake
crystallinity ([2]; hydrochloride): medium
crystallinity ([2]; listed as hydrochloride salt of compound of formula (I), hydrochloride): medium crystallinity
indications for polymorphism ([2]; listed as Hydrochloride Salt, hydrochloride): yes
indications for polymorphism ([2]; listed as hydrochloride, hydrochloride): Different polymorphic modifications
loss on drying [3]: 2.8%

CO[C@H]1COCC[C@H]1NC1CCN(C(=O)c2ncnc(NC[C@H]3CCC[C@@H](c4ccc(C)cc4)O3)c2C)CC1.CS(=O)(=O)O [methanesulfonate salt of compound I, (4-((3R,4R)-3-methoxytetrahydro-pyran-4-ylamino)piperidin-1-yl)(5-methyl-6-(((2R,6S)-6-(p-tolyl)tetrahydro-2H-pyran-2-yl)methylamino)pyrimidin-4-yl)methanone methanesulfonate]
hygroscopic behavior: deliquescence ([1]; up to 80% r.h.): irreversibly deliquescent
hygroscopic behavior: uptake of water ([1]; up to 80% r.h. (humidity range 10-80%), listed as Methanesulfonate Salt, methanesulfonate): 30%
hygroscopic behavior: uptake of water ([1]; up to 80% r.h. (humidity range 10-80%), methanesulfonate): 30%
hygroscopic behavior: uptake of water ([1]; up to 90% r.h.): 45%
crystallinity ([2]; listed as methanesulfonate salt of compound of formula (I), methanesulfonate): medium crystallinity
crystallinity ([2]; methanesulfonate): Medium
indications for polymorphism ([2]; listed as Methanesulfonate Salt, methanesulfonate): No
indications for polymorphism ([2]; listed as methanesulfonate, methanesulfonate): only one polymorphic form

From patent US10213428B2, “(4-((3R,4R)-3-methoxytetrahydro-pyran-4-ylamino)piperidin-1-yl)(5-methyl-6-(((2R,6S)-6-(p-tolyl)tetrahydro-2H-pyran-2-yl)methylamino)pyrimidin-4-yl)methanone citrate” (Centrexion Therapeutics Corporation, priority 2015, dated 2019)
